Measurements as given in patent US20240158448A1, “MULTIVALENT NANO-'SELF' PEPTIDES AND USES THEREOF” (THE TRUSTEES OF THE UNIVERSITY OF PENNSYLVANIA, priority 2021, published 2024).
Non-standard residues stand in square brackets, D forms with d. Primed or numbered codes have the meaning given here. No end group written: not given here. PEG5′ = linker of 5 PEG units between residues

Tests used:
THP-1 macrophages = experiment: Peptide inhibition assay (competition with FAM-labeled nS-F on THP-1 macrophages); format: binding, human; details: pre-treatment with unlabeled peptide
Procedure: Peptide inhibition assay. THP-1 monocytes were PMA differentiated in RPMI for 48 hours. […] To measure background internalization of the FAM-labeled peptides, nS-X-FAM was used. To determine the efficacy of the bivalent peptides to inhibit SIRPα binding, nS-X was used. Excess peptides were washed off with PBS and cells were fixed with 4% formaldehyde for 15 minutes at RT, washed with PBS, stained with 1 μg/mL Hoechst 33342, and then washed with PBS again. Fluorescence imaging was performed as described elsewhere herein and quantification was done using ImageJ.

[1] = tested on: mouse J774A.1 macrophages; experiment: In vitro phagocytosis assay: opsonized human RBCs engulfed by mouse J774A.1 macrophages; format: cell-based; details: saturating / 50 μM peptide
Procedure: In vitro phagocytosis assay. […] For CD47 blocked RBCs, 5 μg/mL of mouse anti-human CD47 (B6H12; BD Biosciences) were added. Thereafter, RBCs were washed with PBS three times and stained with PKH26 dye (1:800 dilution in PBS; Sigma) for 1 hour at RT with shaking in the dark. RBCs were washed and resuspended in PBS. J774A.1 macrophages were plated for 24 hours in RPMI. For SIRPα blocked J774A.1 macrophages, the same peptide blocking procedure as described elsewhere herein was used with the addition of a positive control using 5 μg/mL rat anti-mouse SIRPα ([…]; BD Biosciences). […] CO2 and 95% humidity. Macrophages were then washed with RPMI three times. Adherent and uninternalized RBCs were lysed with water for 30 seconds followed by immediate replacement with RPMI media. In order to distinguish remaining adherent RBCs from internalized RBCs, opsonized RBCs were stained with AlexaFluor 647 donkey anti-rabbit (binds to rabbit polyclonal opsonin on RBC; Invitrogen) IgG (1:1000) while unopsonized, CD47 blocked RBCs were stained with AlexaFluor 647 donkey anti-mouse (binds to mouse monoclonal anti-CD47 on RBCs; Invitrogen) IgG (1:1000) for 30 minutes. After washing, macrophages were fixed with 4% formaldehyde for 15 minutes at RT, washed with PBS, stained with 1 μg/mL Hoechst 33342, and then washed with PBS again. Fluorescence imaging was performed as described elsewhere herein and quantification was done using ImageJ. At least 200 cells were analyzed and experiments were repeated at least three times.

soluble human SIRPα = target: T1, soluble human SIRPα (Homo sapiens, UniProt P78324); experiment: Binding of biotinylated peptides on streptavidin beads to soluble SIRPα
T1 construct: Soluble human SIRPα fused with glutathione s-transferase (SIRPα-GST); GST (glutathione S-transferase); made in house
T1 sequence (P78324 31-373 limits assumed): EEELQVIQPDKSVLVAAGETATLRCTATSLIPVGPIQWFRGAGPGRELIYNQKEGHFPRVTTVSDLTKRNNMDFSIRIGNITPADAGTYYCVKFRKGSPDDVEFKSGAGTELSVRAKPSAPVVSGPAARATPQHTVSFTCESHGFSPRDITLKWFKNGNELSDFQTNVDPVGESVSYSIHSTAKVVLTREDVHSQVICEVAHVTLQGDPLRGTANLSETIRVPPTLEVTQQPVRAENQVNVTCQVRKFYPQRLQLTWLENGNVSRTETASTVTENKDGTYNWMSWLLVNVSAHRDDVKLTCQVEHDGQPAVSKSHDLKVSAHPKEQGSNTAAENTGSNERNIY
From the text: SIRPα Expression and Purification. Soluble human SIRPα fused with glutathione s-transferase (SIRPα-GST) was expressed and purified as previously published (Tsai, et al., 2008, J. Cell Biol. 180:989-1003).
Peptide biotinylation: NHS-biotin (Thermo Fischer) was mixed with nS-wt and nS-V, respectively, following the manufacturer's protocol. The biotinylated peptides were dialyzed against PBS.
Streptavidin-beads binding: Streptavidin-coated polystyrene beads of 2.1 μm radius (Spherotech) were washed and blocked 3x in PBS plus 0.4% BSA. nS-wt-biotin or nS-V-biotin were incubated with the beads for 1 hour at room temperature with shaking. Beads were washed with PBS, then incubated with recombinant SIRPα for 1 hour in ice. Streptavidin beads were labeled with rabbit anti-streptavidin-FITC (Invitrogen) and SIRPα was stained with mouse anti-SIRPα-allophycocyanin (anti-SIRPα-APC; Invitrogen).

[2] = tested on: A549 (SIRPα positive) cells; experiment: Confocal live staining with FAM-labeled peptides, A549 cells; format: binding, human; details: 100 uM and 1 μM FAM-labeled peptide
Procedure: (§1) SIRPα staining and confocal imaging. THP-1 monocytes were PMA-differentiated in RPMI 1640 for 24 hours. J774A.1, A549, and COS-1 cells were plated for 24 hours in media, respectively. Cells were washed with respective media prior to addition of fluorescent peptides. The peptides were left to incubate for 1 hour at 37 ° C., 5% CO2 and 95% humidity. For fixed cell staining, cells were incubated with 4% formaldehyde (Pierce) for 15 minutes prior to the addition of fluorescent peptides whereas for live cell staining, fixation was done after incubation with the FAM-labeled peptides. Nuclei were stained with 1 μg/mL Hoechst 33342 (Invitrogen). Cells were the washed PBS three times before analysis. Fluorescence imaging of fixed cells was performed using an Olympus IX71 with a digital EMCCD camera (Cascade 512B) and a 40×/0.6 NA objective. […] Quantification was done with ImageJ (NIH).
(§2) In order to visualize the uneven binding of the peptides to the surface of the macrophages, a live staining experiment of THP-1, J774A.1, and A549 cells, which all express SIRPα at different levels, was performed with FAM-labeled nS-wt and nS-X and analyzed by confocal microscopy (FIG. 11). […] Fluorescence of nS-X was consistently lower on THP-1 and J774A.1 macrophages relative to nS-wt. […]

[3] = tested on: COS-1 (SIRPα negative) cells; experiment: Confocal live staining with FAM-labeled peptides, COS-1 cells; format: binding, monkey; details: FAM-labeled peptide
Procedure: as §1, §2

Row | Substance | inhibition of monovalent nS-F-FAM binding to macrophages (THP-1 macrophages) | effect on phagocytosis of opsonized RBCs (words) [1] | SIRPα binding to peptide-coated beads (soluble human SIRPα) | binding to A549 cells [2] | binding to COS-1 cells [3]
1 | (VTELFREG-PEG5)2-K (VTELFREG[PEG5′]K[PEG5′]GERFLETV; not fully specified; also: bivalent lysine core) [nS-FF, bivalent nS-F linked through PEG5 linkers to a C-terminal Lys] | further decreased |  |  |  | 
2 | VTELTREG [nS-wt, 8-amino acid wild type nano-Self peptide from the CD47 loop, C-terminal amide] |  | matches anti-CD47 blockade effects | fluorescence is only observed in the presence of biotinylated peptide | binding was observed at 100 uM on A549 cells all around the surface | primarily non-specific
